In US11932645B2, “Substituted pyrazolo[1,5-a]pyrimidines and their use in the treatment of medical disorders” (Bial—R&D Investments, S.A., priority 2014, dated 2024):

Target: T1, glucocerebrosidase (Gcase) (Homo sapiens, UniProt P04062)
T1 sequence (P04062 40-536): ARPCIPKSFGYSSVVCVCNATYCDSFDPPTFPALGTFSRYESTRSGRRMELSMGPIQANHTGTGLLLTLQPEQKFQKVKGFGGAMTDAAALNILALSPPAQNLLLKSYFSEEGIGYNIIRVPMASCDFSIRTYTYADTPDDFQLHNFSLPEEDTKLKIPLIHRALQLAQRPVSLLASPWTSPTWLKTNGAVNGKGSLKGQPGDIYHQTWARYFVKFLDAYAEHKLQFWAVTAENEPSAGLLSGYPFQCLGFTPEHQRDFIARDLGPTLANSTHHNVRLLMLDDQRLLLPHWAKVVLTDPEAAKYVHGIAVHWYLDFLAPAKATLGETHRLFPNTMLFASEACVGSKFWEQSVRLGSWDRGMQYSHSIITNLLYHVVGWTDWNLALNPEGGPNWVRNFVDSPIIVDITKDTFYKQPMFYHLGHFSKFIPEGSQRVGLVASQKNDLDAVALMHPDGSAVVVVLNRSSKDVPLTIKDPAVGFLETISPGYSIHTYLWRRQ
Test: Glucocerebrosidase (Gcase) activation assay, 4-methylumbelliferyl-beta-D-glucopyranoside substrate, with saposin C
Assay type: biochemical
Details: 10 nM GCase, 100 nM saposin C, pH 4.7
Experimental: The ability of exemplary compounds to activate glucocerebrosidase (Gcase) was measured.
A 484 μL aliquot of a 1.0 mg/mL solution of phosphatidylserine (PS) (Sigma P7769) in chloroform was evaporated under a stream of nitrogen for 1 hour. The lipid film was dissolved over 4 minutes of vigorous vortexing in 40 mL of 176 mM K2HPO4/50 mM citric acid (pH 4.7) containing 7.5 μL of triton X-100, resulting in a mixed micellar preparation with a composition of 0.32 mM triton and 0.37 mol % PS. 4-Methylumbelliferyl-beta-D-glucopyranoside (ACROS-337025000) was dissolved in the micellar solution to a final concentration of 2 mM for use as the reaction substrate.
Test compounds were diluted to the desired concentrations with dimethylsulfoxide (DMSO) from 10 mM stocks, and 0.41 μL of the DMSO compound mixture was added to 100 μL of micellar solution containing 10 nM GCase and 100 nM saposin C (Enzo ALX-201-262-C050). Pre-incubation was allowed to occur for 30 minutes at room temperature, after which the reaction was initiated by combining 25 μL of substrate solution with 25 μL of compound/GCase/saposin mixture. The reaction proceeded for 15 minutes at room temperature and was stopped by adding 150 μL of 1M glycine, pH 12.5. The endpoint of the reaction was monitored by measuring fluorescence intensity (excitation: 365 nm; emission: 440 nm) on a SpectraMax i3 instrument (Molecular Devices). Test compounds were screened at 1.0 and 0.1 μM final concentration, and subsequent 8-point dose response curves were obtained using 3-fold dilutions from a maximum final concentration of 5 μM.
For experiments in which the test compound was used at a concentration of 1.0 μM, the symbol “+” indicates less than 30% Gcase activation; the symbol “++” indicates Gcase activation in the range of 30% up to 60%; and the symbol “+++” indicates Gcase activation greater than 60%. For experiments in which the test compound was used at a concentration of 0.1 μM, the symbol “*” indicates less than 10% Gcase activation; the symbol “**” indicates Gcase activation in the range of 10% up to 20%; and the symbol “***” indicates greater than 20% Gcase activation.

SMILES	Percent Gcase Activation 0.1 μM Test Compound	Percent Gcase Activation 1 μM Test Compound
Cc1cc(C)n2ncc(C(=O)Nc3ccc(Cl)c(-c4cnco4)c3)c2n1 [III-53]	** (Gcase activation in the range of 10% up to 20%)	+++ (Gcase activation greater than 60%)
Cc1cc(C)n2ncc(C(=O)NC3CCCc4ccccc43)c2n1 (stereo not shown) [III-58]	*** (greater than 20% Gcase activation)	+++ (Gcase activation greater than 60%)
Cc1cc(C)n2ncc(C(=O)Nc3ccc(-c4cc[nH]n4)cc3)c2n1 [III-31]	* (less than 10% Gcase activation)	+ (less than 30% Gcase activation)
Cc1cc(C)n2ncc(C(=O)Nc3ccc(-c4nccs4)cc3)c2n1 [III-7]	** (Gcase activation in the range of 10% up to 20%)	+++ (Gcase activation greater than 60%)
Cc1ccn2ncc(CNc3ccc(-c4cocn4)cc3)c2n1 [III-25]	* (less than 10% Gcase activation)	+ (less than 30% Gcase activation)
C#Cc1ccc(NC(=O)c2cnn3c(C)cc(C)nc23)cn1 [III-2]	* (less than 10% Gcase activation)	+ (less than 30% Gcase activation)
CO[C@H]1CC[C@H](C(C)(C)NC(=O)c2cnn3c(C)cc(C)nc23)CC1 [III-71]	* (less than 10% Gcase activation)	++ (Gcase activation in the range of 30% up to 60%)
Cc1cc(C)n2ncc(C(=O)Nc3ccc4oncc4c3)c2n1 [III-47]	* (less than 10% Gcase activation)	+ (less than 30% Gcase activation)
Cc1cc(C)n2ncc(C(=O)Nc3cc(C4(C(F)(F)F)CC4)on3)c2n1 [III-18]	* (less than 10% Gcase activation)	+ (less than 30% Gcase activation)
Cc1cc(C)n2ncc(C(=O)Nc3ccc(-c4ccco4)nc3)c2n1 [III-22]	* (less than 10% Gcase activation)	++ (Gcase activation in the range of 30% up to 60%)
Cc1cc(C)n2ncc(C(=O)Nc3ccc4nc(C)sc4c3)c2n1 [III-50]	* (less than 10% Gcase activation)	++ (Gcase activation in the range of 30% up to 60%)
Cc1cc(C)n2ncc(C(=O)Nc3ccc4[nH]c(-c5ccco5)nc4c3)c2n1 [III-49]	* (less than 10% Gcase activation)	+ (less than 30% Gcase activation)
Cc1cc(C)n2ncc(C(=O)Nc3ccc(Cl)c(C(C)Oc4cccnc4)c3)c2n1 (stereo not shown) [III-75]	* (less than 10% Gcase activation)	+++ (Gcase activation greater than 60%)
Cc1cc(C)n2ncc(C(=O)Nc3ccc(CCCC(=O)O)cc3)c2n1 [III-34]	* (less than 10% Gcase activation)	+ (less than 30% Gcase activation)
Cc1cc(C)n2ncc(C(=O)Nc3ccc(C)c(-c4ncco4)c3)c2n1 [III-52]	** (Gcase activation in the range of 10% up to 20%)	+++ (Gcase activation greater than 60%)
Cc1cc(C)n2ncc(CNc3ccc(-c4cocn4)cc3)c2n1 [III-37]	* (less than 10% Gcase activation)	+ (less than 30% Gcase activation)
Cc1cc(C)n2ncc(C(=O)Nc3ccc(-c4cnn(C)c4)cc3)c2n1 [III-54]	* (less than 10% Gcase activation)	++ (Gcase activation in the range of 30% up to 60%)
Cc1cc(C)n2ncc(C(=O)Nc3ccc(-c4cscn4)cc3)c2n1 [III-27]	** (Gcase activation in the range of 10% up to 20%)	+++ (Gcase activation greater than 60%)

SMILES	Percent Gcase Activation 0.1 μM Test Compound	Percent Gcase Activation 1 μM Test Compound
C#Cc1ccc(NC(=O)c2cnn3c(C)cc(C)nc23)nc1 [III-1]	* (less than 10% Gcase activation)	++ (Gcase activation in the range of 30% up to 60%)
Cc1cc(C)n2ncc(C(=O)NC(C)(C)c3ccc(Cl)cc3)c2n1 [III-67]	** (Gcase activation in the range of 10% up to 20%)	+++ (Gcase activation greater than 60%)
Cc1cc(C)n2ncc(C(=O)N[C@@H](C)c3cccc(Cl)c3)c2n1 [III-63]	** (Gcase activation in the range of 10% up to 20%)	+++ (Gcase activation greater than 60%)
COc1ccccc1[C@@H](C)NC(=O)c1cnn2c(C)cc(C)nc12 [III-62]	* (less than 10% Gcase activation)	+++ (Gcase activation greater than 60%)
Cc1ccn2ncc(CNc3ccc(-c4ncco4)cc3)c2n1 [III-26]	* (less than 10% Gcase activation)	+ (less than 30% Gcase activation)
Cc1cc(C)n2ncc(C(=O)Nc3ccc(N4CCCCC4)cc3)c2n1 [IV-3]	* (less than 10% Gcase activation)	+ (less than 30% Gcase activation)
Cc1cc(C)n2ncc(C(=O)NC(C)C3CCC(F)(F)CC3)c2n1 (stereo not shown) [III-66]	* (less than 10% Gcase activation)	+ (less than 30% Gcase activation)
C#C[C@H]1CC[C@@H](NC(=O)c2cnn3c(C)cc(C)nc23)CC1 [III-15]	* (less than 10% Gcase activation)	+ (less than 30% Gcase activation)
Cc1cc(C)n2ncc(C(=O)Nc3ccc(-c4ccco4)cc3)c2n1 [III-55]	*** (greater than 20% Gcase activation)	+++ (Gcase activation greater than 60%)
C#Cc1ccc(NC(=O)c2cnn3c(C)cc(C)nc23)cc1 [IV-1]	** (Gcase activation in the range of 10% up to 20%)	++ (Gcase activation in the range of 30% up to 60%)
Cc1cc(C)n2ncc(C(=O)Nc3ccc(-c4ccccc4)cc3)c2n1 [III-3]	*** (greater than 20% Gcase activation)	++ (Gcase activation in the range of 30% up to 60%)
C#CCOc1ccc(NC(=O)c2cnn3c(C)cc(C)nc23)cc1 [III-33]	* (less than 10% Gcase activation)	+ (less than 30% Gcase activation)
COc1ccccc1[C@H](C)NC(=O)c1cnn2c(C)cc(C)nc12 [III-61]	** (Gcase activation in the range of 10% up to 20%)	+++ (Gcase activation greater than 60%)
COCC#Cc1ccc(NCc2cnn3c(C)cc(C)nc23)cc1 [III-29]	* (less than 10% Gcase activation)	+ (less than 30% Gcase activation)
C#CC1CCC(NC(=O)c2cnn3c(C)cc(C)nc23)CC1 (stereo not shown) [III-13]	* (less than 10% Gcase activation)	+ (less than 30% Gcase activation)
Cc1cc(C)n2ncc(C(=O)Nc3ccc(-c4cnoc4)cc3)c2n1 [III-17]	* (less than 10% Gcase activation)	+ (less than 30% Gcase activation)
C#Cc1ccc(NC(=O)c2cnn3c(C)cc(C)nc23)c(OC)c1 [III-8]	** (Gcase activation in the range of 10% up to 20%)	++ (Gcase activation in the range of 30% up to 60%)
